Values quoted from earlier work as cited in patent US20210290548A1, “FORMULATIONS OF RALTEGRAVIR” (Merck Sharp & Dohme Corp., priority 2018, published 2021).
Read-outs that look alike come from different tables or passages of the source.

Cc1nnc(C(=O)NC(C)(C)c2nc(C(=O)NCc3ccc(F)cc3)c([O-])c(=O)n2C)o1.[K+] [Raltegravir potassium, N-[(4-Fluorophenyl)methyl]-1,6-dihydro5-hydroxy-1-methyl-2-[1-methyl-1-[[(5-methyl-1,3,4-oxadiazol-2-yl)carbonyl]amino]ethyl]-6-oxo-4pyrimidinecarboxamide monopotassium salt]
solubility (acetonitrile): very slightly soluble | solubility (ethanol): very slightly soluble | solubility (isopropanol): insoluble | solubility (methanol): slightly soluble | solubility (water): soluble
